Among the data in US20140163012A1, “PYRIDO-/AZEPINO-BENZOFURAN AND PYRIDO-/AZEPINO-BENZOTHIOPHENE MCH-1 ANTAGONISTS, METHODS OF MAKING, AND USE THEREOF” (Albany Molecular Research, Inc., priority 2012, published 2014) are Ki values, retold here.

Molecules are shown by their SMILES. Structures can show the parent of a compound that is named as a salt.

The target of this assay is human MCH-1 receptor (Homo sapiens, UniProt Q99705). Put plainly: Binding assay for human melanin-concentrating hormone (MCH-1) receptor, radioligand displacement on CHO-K1 cell membranes. (In general: Loss of bound radioactivity is the signal in a displacement assay; it reports binding, not function.)
Sequence of human MCH-1 receptor (Q99705 whole entry): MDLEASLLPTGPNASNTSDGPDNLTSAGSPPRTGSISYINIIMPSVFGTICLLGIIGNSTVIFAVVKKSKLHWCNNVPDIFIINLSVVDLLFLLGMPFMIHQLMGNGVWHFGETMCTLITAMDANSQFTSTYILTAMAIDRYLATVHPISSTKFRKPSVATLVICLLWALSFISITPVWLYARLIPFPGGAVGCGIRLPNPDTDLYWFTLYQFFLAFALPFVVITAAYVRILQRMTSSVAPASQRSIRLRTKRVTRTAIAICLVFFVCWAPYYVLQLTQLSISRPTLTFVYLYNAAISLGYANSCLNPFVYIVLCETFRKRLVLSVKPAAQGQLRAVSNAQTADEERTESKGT
In the case of `O=c1cc(OCc2ccccc2)ccn1-c1ccc2c3c(sc2c1)CNCC3` [Example 15, 4-(Benzyloxy)-1-(1,2,3,4-tetrahydrobenzothieno[2,3-c]pyridin-7-yl)pyridin-2(1H)-one], the Ki was found to be 4 nM.

On to `O=c1cc(-c2ccc(C(F)(F)F)cn2)ccn1-c1ccc2c3c(sc2c1)CNCCC3` [Example 17, 1-(2,3,4,5-Tetrahydro-1H-benzothieno[2,3-c]azepin-8-yl)-4-(5-(trifluoromethyl)pyridin-2-yl)pyridin-2(1H)-one], for which the Ki was 927 nM.

On to `O=c1cc(OCc2ccc(F)cn2)ccn1-c1ccc2c3c(sc2c1)CNCCC3` [Example 18, 4-((5-Fluoropyridin-2-yl)methoxy)-1-(2,3,4,5-tetrahydro-1H-benzothieno[2,3-c]azepin-8-yl)pyridin-2(1H)-one], for which the Ki turned out to be 12 nM.

`O=c1cc(OCc2ccccc2)ccn1-c1ccc2c3c(sc2c1)CNCCC3` [Example 19, 4-(Benzyloxy)-1-(2,3,4,5-tetrahydro-1H-benzothieno[2,3-c]azepin-8-yl)pyridin-2(1H)-one] displayed a Ki of 8.2 nM.

Regarding `O=c1cc(OCc2ccc(Cl)cn2)ccn1-c1ccc2c3c(sc2c1)CCNCC3` [Example 20, 4-((5-Chloropyridin-2-yl)methoxy)-1-(2,3,4,5-tetrahydro-1H-benzothieno[2,3-d]azepin-8-yl)pyridin-2(1H)-one], the affinity corresponds to a Ki of 3.8 nM.

With `O=c1cc(OCc2ccc(F)cn2)ccn1-c1ccc2c3c(sc2c1)CCNCC3` [Example 21, 4-((5-Fluoropyridin-2-yl)methoxy)-1-(2,3,4,5-tetrahydro-1H-benzothieno[2,3-d]azepin-8-yl)pyridin-2(1H)-one], the affinity corresponds to a Ki of 3.8 nM.

`O=c1cc(OCc2ccccc2)ccn1-c1ccc2c3c(sc2c1)CCNCC3` [Example 22, 4-(Benzyloxy)-1-(2,3,4,5-tetrahydro-1H-benzothieno[2,3-d]azepin-8-yl)pyridin-2(1H)-one] returned a Ki of 4.4 nM.

As for `CN1CCc2oc3cc(-n4ccc(OCc5ccc(F)cn5)cc4=O)ccc3c2C1` [Example 23, 4-((5-Fluoropyridin-2-yl)methoxy)-1-(2-methyl-1,2,3,4-tetrahydrobenzofuro[3,2-c]pyridin-7-yl)pyridin-2(1H)-one hydrochloride], the Ki came out at 11 nM.

`CCN1CCc2oc3cc(-n4ccc(OCc5ccc(F)cn5)cc4=O)ccc3c2C1` [Example 24, 1-(2-Ethyl-1,2,3,4-tetrahydrobenzofuro[3,2-c]pyridin-7-yl)-4-((5-fluoropyridin-2-yl)methoxy)pyridin-2(1H)-one] showed a Ki of 13 nM.

In turn, `CC(=O)N1CCc2oc3cc(-n4ccc(OCc5ccccc5)cc4=O)ccc3c2C1` [Example 25, 1-(2-Acetyl-1,2,3,4-tetrahydrobenzofuro[3,2-c]pyridin-7-yl)-4-(benzyloxy)pyridin-2(1H)-one] registered a Ki of 23 nM.

With `CCN1CCc2oc3cc(-n4ccc(OCc5ccccc5)cc4=O)ccc3c2C1` [Example 26, 4-(Benzyloxy)-1-(2-ethyl-1,2,3,4-tetrahydrobenzofuro[3,2-c]pyridin-7-yl)pyridin-2(1H)-one], the inhibitory constant (Ki) was 4.9 nM.

On to `CN1CCc2oc3cc(-n4ccc(OCc5ccccc5)cc4=O)ccc3c2C1` [Example 27, 4-(Benzyloxy)-1-(2-methyl-1,2,3,4-tetrahydrobenzofuro[3,2-c]pyridin-7-yl)pyridin-2(1H)-one hydrochloride], for which the inhibitory constant (Ki) stood at 8.1 nM.

Compound `CC(C)N1CCc2oc3cc(-n4ccc(OCc5ccc(F)cn5)cc4=O)ccc3c2C1` [Example 28, 4-((5-Fluoropyridin-2-yl)methoxy)-1-(2-isopropyl-1,2,3,4-tetrahydrobenzofuro[3,2-c]pyridin-7-yl)pyridin-2(1H-one hydrochloride] gave a Ki of 9.8 nM.

On to `CC(=O)N1CCc2oc3cc(-n4ccc(OCc5ccc(F)cn5)cc4=O)ccc3c2C1` [Example 29, 1-(2-Acetyl-1,2,3,4-tetrahydrobenzofuro[3,2-c]pyridin-7-yl)-4-((5-fluoropyridin-2-yl)methoxy)pyridin-2(1H)-one], for which the Ki was found to be 46 nM.

In the case of `CC(C)N1CCc2oc3cc(-n4ccc(OCc5ccccc5)cc4=O)ccc3c2C1` [Example 30, 4-(Benzyloxy)-1-(2-isopropyl-1,2,3,4-tetrahydrobenzofuro[3,2-c]pyridin-7-yl)pyridin-2(1H)-one hydrochloride], the affinity, expressed as Ki, was 9 nM.

Regarding `O=c1cc(OCc2cccc(C(F)(F)F)n2)ccn1-c1ccc2c3c(oc2c1)CCNC3` [Example 31, 1-(1,2,3,4-Tetrahydrobenzofuro[3,2-c]pyridin-7-yl)-4-((6-(trifluoromethyl)pyridin-2-yl)methoxy)pyridin-2(1H)-one hydrochloride], affinity was put at a Ki of 23 nM.

In turn, `C[C@H]1Cc2oc3cc(-n4ccc(OCc5ccccc5)cc4=O)ccc3c2CN1` [Example 32, (S)-4-(Benzyloxy)-1-(3-methyl-1,2,3,4-tetrahydrobenzofuro[3,2-c]pyridin-7-yl)pyridin-2(1H)-one hydrochloride] came in with a Ki of 7.4 nM.

In turn, `C[C@@H]1NCCc2oc3cc(-n4ccc(OCc5ccccc5)cc4=O)ccc3c21` [Example 33, (S)-4-(Benzyloxy)-1-(1-methyl-1,2,3,4-tetrahydrobenzofuro[3,2-c]pyridin-7-yl)pyridin-2(1H)-one hydrochloride] had a Ki of 6 nM.

`C[C@H]1Cc2oc3cc(-n4ccc(OCc5ccccn5)cc4=O)ccc3c2CN1` [Example 34, (S)-1-(3-Methyl-1,2,3,4-tetrahydrobenzofuro[3,2-c]pyridin-7-yl)-4-(pyridin-2-ylmethoxy)pyridin-2(1H)-one hydrochloride]: the Ki worked out at 38 nM.

Compound `C[C@@H]1NCCc2oc3cc(-n4ccc(OCc5ccccn5)cc4=O)ccc3c21` [Example 35, (S)-1-(1-Methyl-1,2,3,4-tetrahydrobenzofuro[3,2-c]pyridin-7-yl)-4-(pyridin-2-ylmethoxy)pyridin-2(1H)-one hydrochloride] displayed a Ki of 57 nM.

Consider `O=c1cc(-c2ccc(C(F)(F)F)cn2)ccn1-c1ccc2c3c(oc2c1)CCCNC3` [Example 36, 1-(2,3,4,5-Tetrahydro-1H-benzofuro[3,2-c]azepin-8-yl)-4-(5-(trifluoromethyl)pyridin-2-yl)pyridin-2(1H)-one hydrochloride], for which the Ki is 39 nM.

As for `O=c1cc(OCc2ccc(F)cn2)ccn1-c1ccc2c3c(oc2c1)CCCNC3` [Example 37, 4-((5-Fluoropyridin-2-yl)methoxy)-1-(2,3,4,5-tetrahydro-1H-benzofuro[3,2-c]azepin-8-yl)pyridin-2(1H)-one hydrochloride], the Ki is 4.5 nM.

In turn, `O=c1cc(OCc2ccc(Cl)cn2)ccn1-c1ccc2c3c(oc2c1)CCCNC3` [Example 38, 4-((5-Chloropyridin-2-yl)methoxy)-1-(2,3,4,5-tetrahydro-1H-benzofuro[3,2-c]azepin-8-yl)pyridin-2(1H)-one hydrochloride] had a Ki of 3 nM.

Compound `O=c1cc(OCc2ccc(F)cn2)ccn1-c1ccc2c3c(oc2c1)CCNCC3` [Example 39, 4-((5-Fluoropyridin-2-yl)methoxy)-1-(2,3,4,5-tetrahydro-1H-benzofuro[2,3-d]azepin-8-yl)pyridin-2(1H)-one hydrochloride] gave a Ki of 9 nM.

The compound `O=c1cc(OCc2ccccc2)ccn1-c1ccc2c3c(oc2c1)CCCNC3` [Example 40, 4-(Benzyloxy)-1-(2,3,4,5-tetrahydro-1H-benzofuro[3,2-c]azepin-8-yl)pyridin-2(1H)-one hydrochloride] came in with an inhibitory constant (Ki) of 3.4 nM.

As to `O=c1cc(OCc2ccccc2)ccn1-c1ccc2c3c(oc2c1)CCNCC3` [Example 41, 4-(Benzyloxy)-1-(2,3,4,5-tetrahydro-1H-benzofuro[2,3-d]azepin-8-yl)pyridin-2(1H)-one hydrochloride], the Ki was determined as 5.7 nM.

`O=c1cc(OCc2ccc(Cl)cn2)ccn1-c1ccc2c3c(oc2c1)CCNCC3` [Example 42, 4-((5-Chloropyridin-2-yl)methoxy)-1-(2,3,4,5-tetrahydro-1H-benzofuro[2,3-d]azepin-8-yl)pyridin-2(1H)-one hydrochloride] had a Ki of 4.7 nM.

`O=c1cc(OCc2cccc(C(F)(F)F)n2)ccn1-c1ccc2c3c(oc2c1)CCCNC3` [Example 43, 1-(2,3,4,5-Tetrahydro-1H-benzofuro[3,2-c]azepin-8-yl)-4-((6-(trifluoromethyl)pyridin-2-yl)methoxy)pyridin-2(1H)-one hydrochloride] returned a Ki of 9.7 nM.

`O=c1cc(OCc2ccc(F)cn2)cnn1-c1ccc2c3c(oc2c1)CCCNC3` [Example 44, 5-((5-Fluoropyridin-2-yl)methoxy)-2-(2,3,4,5-tetrahydro-1H-benzofuro[3,2-c]azepin-8-yl)pyridazin-3(2H)-one hydrochloride]: affinity was put at a Ki of 13 nM.

The compound `O=c1cc(OCc2ccc(C(F)(F)F)nc2)ccn1-c1ccc2c3c(oc2c1)CCCNC3` [Example 45, 1-(2,3,4,5-Tetrahydro-1H-benzofuro[3,2-c]azepin-8-yl)-4-((6-(trifluoromethyl)pyridin-3-yl)methoxy)pyridin-2(1H)-one hydrochloride] showed a Ki of 29 nM.

For `Cc1ccc(COc2ccn(-c3ccc4c5c(oc4c3)CCCNC5)c(=O)c2)cn1` [Example 46, 4-((6-Methylpyridin-3-yl)methoxy)-1-(2,3,4,5-tetrahydro-1H-benzofuro[3,2-c]azepin-8-yl)pyridin-2(1H)-one hydrochloride], the affinity, expressed as Ki, was 47 nM.

For the compound `O=c1cc(OCc2ccc(C(F)(F)F)nc2)ccn1-c1ccc2c3c(oc2c1)CCNCC3` [Example 47, 1-(2,3,4,5-Tetrahydro-1H-benzofuro[2,3-d]azepin-8-yl)-4-((6-(trifluoromethyl)pyridin-3-yl)methoxy)pyridin-2(1H)-one hydrochloride], affinity was put at a Ki of 55 nM.

The compound `O=c1cc(-c2ccc(C(F)(F)F)cc2)ccn1-c1ccc2c3c(oc2c1)CCCNC3` [Example 48, 1-(2,3,4,5-Tetrahydro-1H-benzofuro[3,2-c]azepin-8-yl)-4-(4-(trifluoromethyl)phenyl)pyridin-2(1H)-one hydrochloride] registered a Ki of 4.5 nM.

The term Ki denotes a measure of affinity in units of concentration, obtained from inhibition or displacement. A high value points to weaker binding.
